One block for each compound: values may come before it.
Test system: 945468-187-T-J2-PDC spheroids viability
Assay: Anticancer human tumor 945468-187-T-J2-PDC patient-derived rectal carcinoma cell line growth inhibition [PI3K]
Settings: spheroids with HUVEC and MSC; for viability, T/C: stronger effect = lower value
Outline: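 Stroma-containing spheroids: tumor line, pooled-donor HUVEC, hMSC. Treatments: targeted agents with PI3K inhibitors. Dosing: clinically relevant, half-log spacing, 10 microM ceiling without known Cmax. Read-out: cell viability.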

[1] = curve of first compound, second compound 0.00316 µM
[2] = curve of first compound, second compound 0.01 µM
[3] = curve of first compound, second compound 0.0316 µM
[4] = curve of first compound, second compound 0.1 µM
[5] = curve of first compound, second compound 0.316 µM
[6] = curve of first compound, second compound 1 µM
[7] = second compound 0.00316 µM, first compound 0.0316 µM
[8] = second compound 0.00316 µM, first compound 0.1 µM
[9] = second compound 0.01 µM, first compound 0.0316 µM
[10] = second compound 0.01 µM, first compound 0.1 µM
[11] = second compound 0.0316 µM, first compound 0.0316 µM
[12] = second compound 0.0316 µM, first compound 0.1 µM
[13] = second compound 0.1 µM, first compound 0.0316 µM
[14] = second compound 0.1 µM, first compound 0.1 µM
[15] = second compound 0.316 µM, first compound 0.0316 µM
[16] = second compound 0.316 µM, first compound 0.1 µM
[17] = second compound 1 µM, first compound 0.0316 µM
[18] = second compound 1 µM, first compound 0.1 µM
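Further: spheroids exposed to compounds for seven days before reading.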

- IC50 (compound alone, run of 04/24/2023): > 1 µM
Structure (SMILES): CC(Nc1ccc2c(c1)OCCn1cc(N3C(=O)OCC3C(F)F)nc1-2)C(N)=O (centres undefined)
- viability, T/C (compound 0.01 µM): 99% [middle of 8 runs]
- viability, T/C (compound 0.1 µM): 106% [middle of 8 runs]
- viability, T/C (compound 0.316 µM): 91.7% [middle of 8 runs]
- viability, T/C (compound 1 µM): 76.9% [middle of 8 runs]

- IC50 [1]: > 10 µM
- IC50 [2]: > 10 µM
- IC50 [3]: > 10 µM
- IC50 [4]: > 10 µM
- IC50 [5]: > 10 µM
- IC50 [6]: > 10 µM
Structure (SMILES): CC(Cn1ccc(-c2ccc(C#N)c(Cl)c2)n1)NC(=O)c1cc(C(C)O)[nH]n1 (centres undefined) + CC(Nc1ccc2c(c1)OCCn1cc(N3C(=O)OCC3C(F)F)nc1-2)C(N)=O
- viability, T/C [7]: 98.9%
- viability, T/C [8]: 105%
- viability, T/C (second compound 0.00316 µM, first compound 0.316 µM): 107%
- viability, T/C (second compound 0.00316 µM, first compound 1 µM): 75.7%
- viability, T/C (second compound 0.00316 µM, first compound 3.16 µM): 106%
- viability, T/C (second compound 0.00316 µM, first compound 10 µM): 110%
- viability, T/C [9]: 108%
- viability, T/C [10]: 85.8%
- viability, T/C (second compound 0.01 µM, first compound 0.316 µM): 90.5%
- viability, T/C (second compound 0.01 µM, first compound 1 µM): 96.2%
- viability, T/C (second compound 0.01 µM, first compound 3.16 µM): 111%
- viability, T/C (second compound 0.01 µM, first compound 10 µM): 93.6%
- viability, T/C [11]: 100%
- viability, T/C [12]: 82%
- viability, T/C (second compound 0.0316 µM, first compound 0.316 µM): 88%
- viability, T/C (second compound 0.0316 µM, first compound 1 µM): 92%
- viability, T/C (second compound 0.0316 µM, first compound 3.16 µM): 91.1%
- viability, T/C (second compound 0.0316 µM, first compound 10 µM): 103%
- viability, T/C [13]: 86.2%
- viability, T/C [14]: 82%
- viability, T/C (second compound 0.1 µM, first compound 0.316 µM): 99.1%
- viability, T/C (second compound 0.1 µM, first compound 1 µM): 80.8%
- viability, T/C (second compound 0.1 µM, first compound 3.16 µM): 101%
- viability, T/C (second compound 0.1 µM, first compound 10 µM): 81.7%
- viability, T/C [15]: 85.2%
- viability, T/C [16]: 73.2%
- viability, T/C (second compound 0.316 µM, first compound 0.316 µM): 95.2%
- viability, T/C (second compound 0.316 µM, first compound 1 µM): 91.4%
- viability, T/C (second compound 0.316 µM, first compound 3.16 µM): 82.7%
- viability, T/C (second compound 0.316 µM, first compound 10 µM): 82.8%
- viability, T/C [17]: 76.2%
- viability, T/C [18]: 74.8%
- viability, T/C (second compound 1 µM, first compound 0.316 µM): 68.9%
- viability, T/C (second compound 1 µM, first compound 1 µM): 63.6%
- viability, T/C (second compound 1 µM, first compound 3.16 µM): 72.3%
- viability, T/C (second compound 1 µM, first compound 10 µM): 71.4%

- IC50 [1]: > 0.1 µM
- IC50 [2]: > 0.1 µM
- IC50 [3]: > 0.1 µM
- IC50 [4]: > 0.1 µM
- IC50 [5]: < 0.000316 µM
- IC50 [6]: < 0.000316 µM
Structure (SMILES): CC(=O)c1c(C)c2cnc(Nc3ccc(N4CCNCC4)cn3)nc2n(C2CCCC2)c1=O + COc1c(OCCCN2CCOCC2)ccc2c3n(c(=NC(=O)c4cnc(N)nc4)nc12)CCN3
- viability, T/C (second compound 0.00316 µM, first compound 0.000316 µM): 101%
- viability, T/C (second compound 0.00316 µM, first compound 0.001 µM): 96.6%
- viability, T/C (second compound 0.00316 µM, first compound 0.00316 µM): 110%
- viability, T/C (second compound 0.00316 µM, first compound 0.01 µM): 103%
- viability, T/C [7]: 96.3%
- viability, T/C [8]: 112%
- viability, T/C (second compound 0.01 µM, first compound 0.000316 µM): 135%
- viability, T/C (second compound 0.01 µM, first compound 0.001 µM): 135%
- viability, T/C (second compound 0.01 µM, first compound 0.00316 µM): 120%
- viability, T/C (second compound 0.01 µM, first compound 0.01 µM): 108%
- viability, T/C [9]: 110%
- viability, T/C [10]: 130%
- viability, T/C (second compound 0.0316 µM, first compound 0.000316 µM): 115%
- viability, T/C (second compound 0.0316 µM, first compound 0.001 µM): 95.4%
- viability, T/C (second compound 0.0316 µM, first compound 0.00316 µM): 101%
- viability, T/C (second compound 0.0316 µM, first compound 0.01 µM): 105%
- viability, T/C [11]: 118%
- viability, T/C [12]: 113%
- viability, T/C (second compound 0.1 µM, first compound 0.000316 µM): 102%
- viability, T/C (second compound 0.1 µM, first compound 0.001 µM): 101%
- viability, T/C (second compound 0.1 µM, first compound 0.00316 µM): 115%
- viability, T/C (second compound 0.1 µM, first compound 0.01 µM): 80%
- viability, T/C [13]: 85.5%
- viability, T/C [14]: 89.9%
- viability, T/C (second compound 0.316 µM, first compound 0.000316 µM): 38.6%
- viability, T/C (second compound 0.316 µM, first compound 0.001 µM): 36.7%
- viability, T/C (second compound 0.316 µM, first compound 0.00316 µM): 45.7%
- viability, T/C (second compound 0.316 µM, first compound 0.01 µM): 40.9%
- viability, T/C [15]: 36.2%
- viability, T/C [16]: 37.4%
- viability, T/C (second compound 1 µM, first compound 0.000316 µM): 24.2%
- viability, T/C (second compound 1 µM, first compound 0.001 µM): 21.4%
- viability, T/C (second compound 1 µM, first compound 0.00316 µM): 28.7%
- viability, T/C (second compound 1 µM, first compound 0.01 µM): 21.6%
- viability, T/C [17]: 22.8%
- viability, T/C [18]: 18.5%

Reference: PubChem BioAssay AID1963972 (Molecular Pharmacology Branch, DTP, NCI, 2024)
